Measurements taken from patent EP2667887B1, “PHARMACEUTICAL COMPOSITION COMPRISING THE PEPTIDE GLU-ASP-GLY AND USE FOR TREATING HELICOBACTER PYLORI INDUCED GASTRODUODENAL DISEASES” («Garmonia», Ltd., priority 2011, dated 2012).

Legend:
[1] = test system: constitutive and inducible NO synthase (cNO and iNO respectively), HSP70, and NF-kappa b-p65 factor; experiment: Western blot of signal molecules from ulcer edge in the rat gastric ulcer model with Helicobacter pylori; format: in vivo, Sprague Dawley rats; details: 7th day from ulcer induction; doses of 1 µg to 10 µg per kg of body weight daily for 5 days
Experimental: The study was carried out on 90 male Sprague Dawley rats (180-220 g) randomly subdivided into 9 groups (10 animals per group): • Group 1 - intact rats (saline solution) • Group 2 - modeled ulcer + saline solution • Group 3 (6 subgroups) - modeled ulcer + H-Glu-Asp-Gly-OH • Group 4 - modeled ulcer + Klacid antibiotic
Ulcer was modeled by three-time administration (in 4 hours) in the rat stomach of cysteamine-HCL (Aldrich, Milwannee, WI) by means of a probe in the dose of 25 mg per 100 g of body weight. The ulcer, approximately 28 mm^2 in size, appeared at the boundary between antral and fundal segments of the stomach 12 hours after the last administration. Simultaneously with the first administration of cysteamine-HCL a Helicobacter pylori culture (Curtin Matheson Scientific Inc, strain Cag J117, 100 microbial cells) was administered in the rat stomach through the same probe.
A means on the basis of the pharmaceutical composition comprising the studied peptide H-Glu-Asp-Gly-OH was administered subcutaneously in the dose of 1 µg per kg of animal body weight (group 3a), 2,5 µg per kg of body weight (group 3b) and 10 µg per kg of body weight (group 3c) in 0,5 ml of saline solution daily, for 5 days from the occurrence of the stomach ulcer. […]

[2] = Subacute toxicity study, 90 days; format: in vivo, white mongrel male rats; details: rats, daily for 90 days, 1 µg/kg, 0,1 mg/kg, doses exceed the therapeutic one by 100-1000 times
Experimental: General toxicity of peptide H-Glu-Asp-Gly-OH was studied in accordance with the requirements of "Manual for Experimental (Pre-Clinical) Study of New Pharmacological Substances" (2000): acute toxicity in case of a single administration of the preparation, as well as subacute and chronic toxicity in case of a long-term administration of the peptide.
Subacute toxicity study was carried out on 64 white mongrel male rats with body weight 180-220 g. Experimental animals received the preparation daily, once a day for 90 days in the doses of 1 µg/kg, 0,1 mg/kg, 1 mg/kg in 0,5 ml of sterile 0,9% NaCl solution. Control animals were treated with sterile 0,9% NaCl solution in the same volume. Before the administration of the preparation, as well as on the 30th, 60th and 90th day after the beginning of the administration of the preparation peripheral blood morphology and properties were studied in the animals. Upon completion of the experiment biochemical and coagulology indices of the blood were evaluated.

glutamyl-aspartyl-glycine [H-Glu-Asp-Gly-OH]
level of production of signal molecules (both NO synthase forms, HSP70, NF kappa b-p65) in the mucous membrane of the edge of the ulcer [1]: comparable with commonly normal indices | subacute toxicity [2]: no side effects
